The structures appear in SMILES notation. *1 amine or outer side, *2 acyl side, *3 side chain or, on linkers, in order; H or OH if unused. Where a SMILES comes first, the peptide text is derived from it. Side-chain parts run from the residue outwards. γGlu = O=C(O)[C@H](CCC(=O)[*:2])N[*:1]

In this assay the target is T1, glucagon receptor (Homo sapiens, UniProt P47871).
T1 construct: expressed in transfected cells
The assay is described as follows: Assay (I) Glucagon activity (cAMP biosensor, FLIPR). The class given is cell-based. The note with it: HEK-293 cells with cloned glucagon receptor and cAMP biosensor; end point after 6 minutes. On the procedure:
The glucagon receptor was cloned into HEK-293 cells having a membrane bound cAMP biosensor (ACTOne™). The cells (14000 per well) were incubated (37° C., 5% CO2) overnight in 384-well plates. Next day the cells were loaded with a calcium responsive dye that only distributed into the cytoplasm. Probenecid, an inhibitor of the organic anion transporter, was added to prevent the dye from leaving the cell. A PDE inhibitor was added to prevent formatted cAMP from being degraded, The plates were placed into a […] and the glucagon analogues were added. End point data were collected after 6 minutes. An increase in intracellular cAMP was proportional to an increased in calcium concentrations in the cytoplasm. When calcium was bound the dry a fluorescence signal was generated. EC50-values were calculated in Prism5.

T1 sequence (P47871 26-477): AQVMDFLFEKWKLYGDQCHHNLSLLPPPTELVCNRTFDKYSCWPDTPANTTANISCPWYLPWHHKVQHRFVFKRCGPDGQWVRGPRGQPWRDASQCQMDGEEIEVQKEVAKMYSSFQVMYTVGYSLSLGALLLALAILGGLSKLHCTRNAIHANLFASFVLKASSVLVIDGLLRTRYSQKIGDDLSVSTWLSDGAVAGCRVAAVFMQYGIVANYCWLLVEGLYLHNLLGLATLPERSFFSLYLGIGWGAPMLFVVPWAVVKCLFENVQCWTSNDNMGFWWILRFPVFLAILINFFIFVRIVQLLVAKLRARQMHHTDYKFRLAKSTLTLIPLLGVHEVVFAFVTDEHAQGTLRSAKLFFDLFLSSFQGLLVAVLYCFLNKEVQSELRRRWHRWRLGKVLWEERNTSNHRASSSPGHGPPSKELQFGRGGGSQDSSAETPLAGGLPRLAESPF

`CC(=O)N[C@@H](CCC(=O)N[C@@H](CCC(=O)N[C@@H](CCC(=O)N[C@@H](CCC(=O)NCCCC[C@H](NC(=O)[C@H](CC(C)C)NC(=O)[C@H](CC(C)C)NC(=O)[C@H](Cc1c[nH]c2ccccc12)NC(=O)[C@H](CCC(N)=O)NC(=O)[C@@H](NC(=O)[C@H](Cc1ccccc1)NC(=O)[C@H](CC(=O)O)NC(=O)[C@H](CCC(N)=O)NC(=O)[C@H](C)NC(=O)[C@H](CCCNC(=N)N)NC(=O)[C@H](CCCNC(=N)N)NC(=O)[C@H](CO)NC(=O)[C@H](CC(=O)O)NC(=O)[C@H](CC(C)C)NC(=O)[C@H](Cc1ccc(O)cc1)NC(=O)[C@H](CCCCN)NC(=O)[C@H](CO)NC(=O)[C@H](Cc1ccc(O)cc1)NC(=O)[C@H](CC(=O)O)NC(=O)[C@H](CO)NC(=O)[C@@H](NC(=O)[C@H](Cc1ccccc1)NC(=O)[C@@H](NC(=O)CNC(=O)[C@H](CCC(N)=O)NC(=O)[C@H](CO)NC(=O)[C@@H](N)Cc1c[nH]cn1)[C@@H](C)O)[C@@H](C)O)C(C)C)C(=O)N[C@H](C(=O)O)[C@@H](C)O)C(=O)O)C(=O)O)C(=O)O)C(=O)O` [Example 53, N^ε28-[(4S)-4-[[(4S)-4-[[(4S)-4-[[(4S)-4-acetamido-4-carboxybutanoyl]amino]-4-carboxybutanoyl]amino]-4-carboxybutanoyl]amino]-4-carboxybutanoyl]-[Leu^27,Lys^28]-Glucagon]: the 50% effective concentration (EC50) was found to be 7 pM.
`CC(=O)N[C@@H](CCC(=O)N[C@@H](CCC(=O)N[C@@H](CCC(=O)N[C@@H](CCC(=O)NCCCC[C@H](NC(=O)[C@@H](NC(=O)[C@H](Cc1ccccc1)NC(=O)[C@H](CCC(=O)O)NC(=O)[C@H](CCC(N)=O)NC(=O)[C@H](C)NC(=O)[C@H](CCCNC(=N)N)NC(=O)[C@H](CCCNC(=N)N)NC(=O)[C@H](CO)NC(=O)[C@H](CCC(=O)O)NC(=O)[C@H](CC(C)C)NC(=O)[C@H](Cc1ccc(O)cc1)NC(=O)[C@H](CCCCN)NC(=O)[C@H](CO)NC(=O)[C@H](Cc1ccc(O)cc1)NC(=O)[C@H](CC(=O)O)NC(=O)[C@H](CO)NC(=O)[C@@H](NC(=O)[C@H](Cc1ccccc1)NC(=O)[C@@H](NC(=O)CNC(=O)[C@H](CCC(N)=O)NC(=O)[C@H](CO)NC(=O)[C@@H](N)Cc1c[nH]cn1)[C@@H](C)O)[C@@H](C)O)C(C)C)C(=O)N[C@@H](Cc1c[nH]c2ccccc12)C(=O)N[C@@H](CC(C)C)C(=O)N[C@@H](CC(C)C)C(=O)N[C@@H](CO)C(=O)N[C@H](C(=O)O)[C@@H](C)O)C(=O)O)C(=O)O)C(=O)O)C(=O)O` [Example 22, N^ε24-[(4S)-4-[[(4S)-4-[[(4S)-4-[[(4S)-4-acetamido-4-carboxybutanoyl]amino]-4-carboxybutanoyl]amino]-4-carboxybutanoyl]amino]-4-carboxybutanoyl]-[Glu15,Glu21,Lys24,Leu27,Ser28]-Glucagon] (H-HSQGTFTSDYSKYLESRRAQEFVK([γGlu-γGlu-γGlu-γGlu-Ac])WLLST-OH) returned an EC50 of 5.5 pM.
Turning to `CC(=O)N[C@@H](CCC(=O)N[C@@H](CCC(=O)N[C@@H](CCC(=O)N[C@@H](CCC(=O)NCCCC[C@H](NC(=O)[C@@H](NC(=O)[C@H](Cc1ccccc1)NC(=O)[C@H](CC(=O)O)NC(=O)[C@H](CCC(N)=O)NC(=O)[C@H](C)NC(=O)[C@H](CCCNC(=N)N)NC(=O)[C@H](CCCNC(=N)N)NC(=O)[C@@H](NC(=O)[C@H](CC(=O)O)NC(=O)[C@H](CC(C)C)NC(=O)[C@H](Cc1ccc(O)cc1)NC(=O)[C@H](CCCCN)NC(=O)[C@H](CO)NC(=O)[C@H](Cc1ccc(O)cc1)NC(=O)[C@H](CC(=O)O)NC(=O)[C@H](CO)NC(=O)[C@@H](NC(=O)[C@H](Cc1ccccc1)NC(=O)[C@@H](NC(=O)CNC(=O)[C@H](CCC(N)=O)NC(=O)[C@H](CO)NC(=O)[C@@H](N)Cc1c[nH]cn1)[C@@H](C)O)[C@@H](C)O)[C@@H](C)O)C(C)C)C(=O)N[C@@H](Cc1c[nH]c2ccccc12)C(=O)N[C@@H](CC(C)C)C(=O)N[C@@H](CC(C)C)C(=O)N[C@@H](CO)C(=O)N[C@H](C(=O)O)[C@@H](C)O)C(=O)O)C(=O)O)C(=O)O)C(=O)O` [Example 30], the EC50 was 6.5 pM. The EC50 values of the last two molecules are within 1.5-fold of each other.
`CC(=O)N[C@@H](CCC(=O)N[C@@H](CCC(=O)N[C@@H](CCC(=O)N[C@@H](CCC(=O)NCCCC[C@H](NC(=O)[C@H](C)NC(=O)[C@H](CCCNC(=N)N)NC(=O)[C@H](CCCNC(=N)N)NC(=O)[C@H](CO)NC(=O)[C@H](CC(=O)O)NC(=O)[C@H](CC(C)C)NC(=O)[C@H](Cc1ccc(O)cc1)NC(=O)[C@H](CCCCN)NC(=O)[C@H](CO)NC(=O)[C@H](Cc1ccc(O)cc1)NC(=O)[C@H](CC(=O)O)NC(=O)[C@H](CO)NC(=O)[C@@H](NC(=O)[C@H](Cc1ccccc1)NC(=O)[C@@H](NC(=O)CNC(=O)[C@H](CCC(N)=O)NC(=O)[C@H](CO)NC(=O)[C@@H](N)Cc1c[nH]cn1)[C@@H](C)O)[C@@H](C)O)C(=O)N[C@@H](CC(=O)O)C(=O)N[C@@H](Cc1ccccc1)C(=O)N[C@H](C(=O)N[C@@H](CCC(N)=O)C(=O)N[C@@H](Cc1c[nH]c2ccccc12)C(=O)N[C@@H](CC(C)C)C(=O)N[C@@H](CC(C)C)C(=O)N[C@@H](CO)C(=O)N[C@H](C(=O)O)[C@@H](C)O)C(C)C)C(=O)O)C(=O)O)C(=O)O)C(=O)O` [Example 54, N^ε20-[(4S)-4-[[(4S)-4-[[(4S)-4-[[(4S)-4-acetamido-4-carboxybutanoyl]amino]-4-carboxybutanoyl]amino]-4-carboxybutanoyl]amino]-4-carboxybutanoyl]-[Lys^20,Leu^27,Ser^28]-Glucagon] came in with an EC50 of 18 pM.
Turning to `CC(=O)N[C@@H](CCC(=O)N[C@@H](CCC(=O)N[C@@H](CCC(=O)N[C@@H](CCC(=O)NCCCC[C@H](NC(=O)[C@H](CO)NC(=O)[C@H](CC(C)C)NC(=O)[C@H](CC(C)C)NC(=O)[C@H](Cc1c[nH]c2ccccc12)NC(=O)[C@H](CCC(N)=O)NC(=O)[C@@H](NC(=O)[C@H](Cc1ccccc1)NC(=O)[C@H](CC(=O)O)NC(=O)[C@H](CCC(N)=O)NC(=O)[C@H](C)NC(=O)[C@H](CCCNC(=N)N)NC(=O)[C@H](CCCNC(=N)N)NC(=O)[C@H](CO)NC(=O)[C@H](CC(=O)O)NC(=O)[C@H](CC(C)C)NC(=O)[C@H](Cc1ccc(O)cc1)NC(=O)[C@H](CCCCN)NC(=O)[C@H](CO)NC(=O)[C@H](Cc1ccc(O)cc1)NC(=O)[C@H](CC(=O)O)NC(=O)[C@H](CO)NC(=O)[C@@H](NC(=O)[C@H](Cc1ccccc1)NC(=O)[C@@H](NC(=O)CNC(=O)[C@H](CCC(N)=O)NC(=O)[C@H](CO)NC(=O)[C@@H](N)Cc1c[nH]cn1)[C@@H](C)O)[C@@H](C)O)C(C)C)C(=O)O)C(=O)O)C(=O)O)C(=O)O)C(=O)O` [Example 52, N^ε^29-[(4S)-4-[[(4S)-4-[[(4S)-4-[[(4S)-4-acetamido-4-carboxybutanoyl]amino]-4-carboxybutanoyl]amino]-4-carboxybutanoyl]amino]-4-carboxybutanoyl]-[Leu^27,Ser^28,Lys^29]-Glucagon], a half-maximal response (EC50) required 10 pM.
The molecule `CC(=O)N[C@@H](CCC(=O)N[C@@H](CCC(=O)N[C@@H](CCC(=O)N[C@@H](CCC(=O)NCCCC[C@H](NC(=O)[C@@H](NC(=O)[C@H](Cc1ccccc1)NC(=O)[C@H](CC(=O)O)NC(=O)[C@H](CCC(N)=O)NC(=O)[C@H](C)NC(=O)[C@H](CCCNC(=N)N)NC(=O)[C@H](CCCNC(=N)N)NC(=O)[C@H](CO)NC(=O)[C@H](CCC(=O)O)NC(=O)[C@H](CC(C)C)NC(=O)[C@H](Cc1ccc(O)cc1)NC(=O)[C@H](CCCCN)NC(=O)[C@H](CO)NC(=O)[C@H](Cc1ccc(O)cc1)NC(=O)[C@H](CC(=O)O)NC(=O)[C@H](CO)NC(=O)[C@@H](NC(=O)[C@H](Cc1ccccc1)NC(=O)[C@@H](NC(=O)CNC(=O)[C@H](CCC(N)=O)NC(=O)[C@H](CO)NC(=O)[C@@H](N)Cc1c[nH]cn1)[C@@H](C)O)[C@@H](C)O)C(C)C)C(=O)N[C@@H](Cc1c[nH]c2ccccc12)C(=O)N[C@@H](CC(C)C)C(=O)N[C@@H](CC(C)C)C(=O)N[C@@H](CO)C(=O)N[C@H](C(=O)O)[C@@H](C)O)C(=O)O)C(=O)O)C(=O)O)C(=O)O` [Example 23, N^ε24-[(4S)-4-[[(4S)-4-[[(4S)-4-[[(4S)-4-acetamido-4-carboxybutanoyl]amino]-4-carboxybutanoyl]amino]-4-carboxybutanoyl]amino]-4-carboxybutanoyl]-[Glu15,Lys24,Leu27,Ser28]-Glucagon] came in with an EC50 of 10.5 pM. This EC50 and that of the molecule before are within 1.5-fold of each other.
`CC(=O)N[C@@H](CCC(=O)N[C@@H](CCC(=O)N[C@@H](CCC(=O)N[C@@H](CCC(=O)NCCCC[C@H](NC(=O)[C@@H](NC(=O)[C@H](Cc1ccccc1)NC(=O)[C@H](CC(=O)O)NC(=O)[C@H](CCC(N)=O)NC(=O)[C@H](C)NC(=O)[C@H](CCCNC(=N)N)NC(=O)[C@H](CCCNC(=N)N)NC(=O)[C@H](CC(C)C)NC(=O)[C@H](CC(=O)O)NC(=O)[C@H](CC(C)C)NC(=O)[C@H](Cc1ccc(O)cc1)NC(=O)[C@H](CCCCN)NC(=O)[C@H](CO)NC(=O)[C@H](Cc1ccc(O)cc1)NC(=O)[C@H](CC(=O)O)NC(=O)[C@H](CO)NC(=O)[C@@H](NC(=O)[C@H](Cc1ccccc1)NC(=O)[C@@H](NC(=O)CNC(=O)[C@H](CCC(N)=O)NC(=O)[C@H](C)NC(=O)[C@@H](N)Cc1c[nH]cn1)[C@@H](C)O)[C@@H](C)O)C(C)C)C(=O)N[C@@H](Cc1c[nH]c2ccccc12)C(=O)N[C@@H](CC(C)C)C(=O)N[C@@H](CC(C)C)C(=O)N[C@@H](CO)C(=O)N[C@H](C(=O)O)[C@@H](C)O)C(=O)O)C(=O)O)C(=O)O)C(=O)O` [Example 42] (H-HAQGTFTSDYSKYLDLRRAQDFVK([γGlu-γGlu-γGlu-γGlu-Ac])WLLST-OH) displayed an EC50 of 8 pM.

What is called EC50 is the concentration giving half of the maximal effect. Read a low EC50 as higher potency in that assay.

Values taken from US20140031278A1, “Novel Glucagon Analogues” (NOVO NORDISK A/S, priority 2011, published 2014).
